Values belong to the compound of their own block, whether it stands above or below them. Activity calls are given as the source filed them. The rule behind the calls is not given here.
How the values were obtained:
[1] = tested on: L02; test: Cytotoxicity against human L02 cells at 100 uM after 72 hrs by MTT assay; format: cell-based; details: l02, 72 h
[2] = tested on: HUVEC; test: Cytotoxicity against HUVEC cells at 100 uM after 72 hrs by MTT assay; format: cell-based; details: human
[3] = tested on: Hep 3B2; test: Cytotoxicity against human Hep3B cells at 100 uM after 72 hrs by MTT assay; format: cell-based; details: hep 3b2, 72 h
[4] = tested on: HEK293; test: Cytotoxicity against HEK293 cells at 100 uM after 72 hrs by MTT assay; format: cell-based; details: human, hek293, 72 h
[5] = Drug metabolism in pH 7.4 PBS assessed as light-mediated formation of N-(5-(1-(2-(4-chlorophenoxy)ethyl)-1H-1,2,3-triazol-4-yl)-3-hydroxypicolinoyl)glycine at 50 uM followed by laser irradiation for 120 mins by HPLC analysis
[6] = target: Egl nine homolog 1 (Homo sapiens) (UniProt Q9GZT9); test: Photoactivated inhibition of PHD2 (181 to 426 residues) (unknown origin) at 1.23 uM using FITC-HIF1alpha (556 to 574 residues) as substrate incubated for 60 mins using laser irradiated compound at 405 nm light by fluorescence polarization assay
[7] = target: Egl nine homolog 1 (Homo sapiens) (UniProt Q9GZT9); test: Photoactivated inhibition of PHD2 (181 to 426 residues) (unknown origin) at 1.23 uM using FITC-HIF1alpha (556 to 574 residues) as substrate incubated for 60 mins using laser irradiated compound at 405 nm light for >20 mins by fluorescence polarization assay
[8] = target: Egl nine homolog 1 (Homo sapiens) (UniProt Q9GZT9); test: Photoactivated inhibition of PHD2 in human Hep3B cells assessed as increase in HIF-2alpha level in nucleus in presence of light irradiation for 20 mins measured after 10 hrs by Western blot analysis; format: cell-based
[9] = Stability in rat plasma assessed as compound remaining at […] measured at 8 hrs by HPLC analysis; format: ADME, cell-free; details: read-out: Stability
[10] = target: Egl nine homolog 1 (Homo sapiens) (UniProt Q9GZT9); test: Photoactivated inhibition of PHD2 in HEK293 cells harboring firefly luciferase gene and renilla luciferase gene assessed as stabilization of HIF-alpha at 100 uM using […] under light irradiation for 1 to 30 mins and measured after 24 hrs by chemiluminescence assay; format: cell-based
[11] = target: Egl nine homolog 1 (Homo sapiens) (UniProt Q9GZT9); test: Photoactivated inhibition of PHD2 in human Hep3B cells assessed as stabilization of HIFalpha by measuring upregulation of EPO gene expression at 50 uM in presence of light irradiation for 1 to 30 mins by qRT-PCR analysis; format: cell-based
[12] = Drug metabolism in pH 7.4 PBS assessed as light-mediated formation of N-(5-(1-(2-(4-chlorophenoxy)ethyl)-1H-1,2,3-triazol-4-yl)-3-hydroxypicolinoyl)glycine at 50 uM followed by laser irradiation by HPLC analysis
[13] = Drug metabolism in pH 7.4 PBS assessed as light-mediated formation of N-(5-(1-(2-(4-chlorophenoxy)ethyl)-1H-1,2,3-triazol-4-yl)-3-hydroxypicolinoyl)glycine at 50 uM followed by laser irradiation for 30 secs to 20 mins by UV-Visible spectroscopy
[14] = target: Egl nine homolog 1 (Homo sapiens) (UniProt Q9GZT9); test: Photoactivated inhibition of PHD2 in HEK293 cells harboring firefly luciferase gene and renilla luciferase gene assessed as spatiotemporal dependent accumulation of hypoxia response element level at 100 uM using […] under laser light irradiation after 24 hrs by chemiluminescence assay; format: cell-based
[15] = target: Egl nine homolog 1 (Homo sapiens) (UniProt Q9GZT9); test: Photoactivated inhibition of PHD2 (181 to 426 residues) (unknown origin) at 1.23 uM using FITC-HIF1alpha (556 to 574 residues) as substrate incubated for 60 mins using laser irradiated compound at 405 nm light for 20 mins by fluorescence polarization assay relative to control
[16] = Drug metabolism in pH 7.4 PBS assessed as light-mediated formation of N-(5-(1-(2-(4-chlorophenoxy)ethyl)-1H-1,2,3-triazol-4-yl)-3-hydroxypicolinoyl)glycine at 50 uM followed by laser irradiation for 30 secs by HPLC analysis
[17] = target: Egl nine homolog 1 (Homo sapiens) (UniProt Q9GZT9); test: Photoactivated inhibition of PHD2 in human Hep3B cells assessed as increase in HIF-2alpha level in presence of light irradiation for 1 to 20 mins measured after 10 hrs by Western blot analysis; format: cell-based
[18] = Drug metabolism in pH 7.4 PBS assessed as light-mediated formation of N-(5-(1-(2-(4-chlorophenoxy)ethyl)-1H-1,2,3-triazol-4-yl)-3-hydroxypicolinoyl)glycine at 50 uM followed by laser irradiation for 2 mins by HPLC analysis
[19] = Chemical stability in pH 7.4 PBS buffer at 50 uM measured over 24 hrs by HPLC analysis; format: physicochemical; details: pH 7.4, 24 h
[20] = Stability in human plasma assessed as compound remaining at […] measured at 8 hrs by HPLC analysis; format: ADME, cell-free; details: read-out: Stability
[21] = Drug metabolism in pH 7.4 PBS assessed as light-mediated formation of N-(5-(1-(2-(4-chlorophenoxy)ethyl)-1H-1,2,3-triazol-4-yl)-3-hydroxypicolinoyl)glycine at 50 uM followed by laser irradiation by UV-Visible spectroscopy
[22] = Drug metabolism in pH 7.4 PBS assessed as light-mediated formation of 7-(diethylamino)-4-(hydroxymethyl)-2H-chromen-2-one at 50 uM followed by laser irradiation by UV-Visible spectroscopy
[23] = target: Egl nine homolog 1 (Homo sapiens) (UniProt Q9GZT9); test: Photoactivated inhibition of PHD2 in human Hep3B cells assessed as stabilization of HIFalpha by measuring upregulation of EPO gene expression at 50 uM in presence of light irradiation for >20 mins by qRT-PCR analysis; format: cell-based
[24] = target: Egl nine homolog 1 (Homo sapiens) (UniProt Q9GZT9); test: Photoactivated inhibition of PHD2 in human Hep3B cells assessed as increase in HIF-1alpha level in presence of light irradiation for 1 to 20 mins measured after 10 hrs by Western blot analysis; format: cell-based
[25] = Drug metabolism in pH 7.4 PBS assessed as light-mediated formation of N-(5-(1-(2-(4-chlorophenoxy)ethyl)-1H-1,2,3-triazol-4-yl)-3-hydroxypicolinoyl)glycine at 50 uM followed by laser irradiation for 15 mins by HPLC analysis
[26] = Drug metabolism in pH 7.4 PBS assessed as light-mediated formation of 7-(diethylamino)-4-(hydroxymethyl)-2H-chromen-2-one at 50 uM followed by laser irradiation by HPLC analysis
[27] = Drug metabolism in pH 7.4 PBS assessed as light-mediated formation of N-(5-(1-(2-(4-chlorophenoxy)ethyl)-1H-1,2,3-triazol-4-yl)-3-hydroxypicolinoyl)glycine at 50 uM followed by laser irradiation for 9 mins by HPLC analysis
[28] = target: Egl nine homolog 1 (Homo sapiens) (UniProt Q9GZT9); test: Photoactivated inhibition of PHD2 in human Hep3B cells assessed as increase in HIF-1alpha level in nucleus in presence of light irradiation for 20 mins measured after 10 hrs by Western blot analysis; format: cell-based
[29] = Drug metabolism in pH 7.4 PBS assessed as light-mediated formation of N-(5-(1-(2-(4-chlorophenoxy)ethyl)-1H-1,2,3-triazol-4-yl)-3-hydroxypicolinoyl)glycine at 50 uM followed by laser irradiation for 20 mins by HPLC analysis
[30] = target: Egl nine homolog 1 (Homo sapiens) (UniProt Q9GZT9); test: Photoactivated inhibition of PHD2 (181 to 426 residues) (unknown origin) using FITC-HIF1alpha (556 to 574 residues) as substrate incubated for 60 mins using laser irradiated compound at 405 nm light for 30 secs to 30 mins by fluorescence polarization assay
[31] = Drug metabolism in pH 7.4 PBS assessed as light-mediated formation of N-(5-(1-(2-(4-chlorophenoxy)ethyl)-1H-1,2,3-triazol-4-yl)-3-hydroxypicolinoyl)glycine at 50 uM followed by laser irradiation for 5 mins by HPLC analysis

Egl nine homolog 1 (Homo sapiens), sequence (Q9GZT9 2-426 limits assumed): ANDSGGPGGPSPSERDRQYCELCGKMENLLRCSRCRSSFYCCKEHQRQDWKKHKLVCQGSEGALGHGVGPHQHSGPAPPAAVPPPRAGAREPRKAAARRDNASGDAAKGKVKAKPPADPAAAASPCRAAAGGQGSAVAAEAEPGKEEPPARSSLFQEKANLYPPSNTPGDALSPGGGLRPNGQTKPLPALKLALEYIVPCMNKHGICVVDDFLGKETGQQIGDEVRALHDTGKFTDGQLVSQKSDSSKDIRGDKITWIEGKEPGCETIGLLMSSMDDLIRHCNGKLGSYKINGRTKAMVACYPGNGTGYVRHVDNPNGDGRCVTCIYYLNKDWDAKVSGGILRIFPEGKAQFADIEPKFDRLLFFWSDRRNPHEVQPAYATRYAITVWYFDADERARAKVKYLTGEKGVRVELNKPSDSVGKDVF

Compound: O=C(O)CNC(=O)c1ncc(-c2cn(CCOc3ccc(Cl)cc3)nn2)cc1O
Activity [1]: Non-Toxic
Activity [2]: Non-Toxic
Activity [3]: Non-Toxic
Activity [4]: Non-Toxic

inhibition [6]: inactive
Compound: CCN(CC)c1ccc2c(COc3cc(-c4cn(CCOc5ccc(Cl)cc5)nn4)cnc3C(=O)NCC(=O)O)cc(=O)oc2c1
Drug metabolism [5]: Metabolite not detected

inhibition [7]: Active
inhibition [8]: Active
remaining at 8 h [9]: > 90%
inhibition [10]: Active
inhibition [11]: Active
inhibition [14]: Active
inhibition [15]: 95.2%
inhibition [17]: Active
Stability [19]: Stable
remaining at 8 h [20]: > 90%
inhibition [23]: Active
inhibition [24]: Active
inhibition [28]: Active
inhibition [30]: Active
Compound: CCN(CC)c1ccc2c(COC(=O)CNC(=O)c3ncc(-c4cn(CCOc5ccc(Cl)cc5)nn4)cc3O)cc(=O)oc2c1
Drug metabolism [12]: Metabolite detected
Drug metabolism [13]: Metabolite detected
Activity [1]: Non-Toxic
Drug metabolism [16]: 5%
Drug metabolism [18]: 16%
Drug metabolism [21]: Metabolite detected
Drug metabolism [22]: Metabolite detected
Activity [2]: Non-Toxic
Activity [3]: Non-Toxic
Activity [4]: Non-Toxic
Drug metabolism [25]: 82%
Drug metabolism [26]: Metabolite detected
Drug metabolism [27]: 68%
Drug metabolism [29]: 100%
Drug metabolism [31]: 49%
